Results on 38 molecules are retold here after patent publication US20140094462A1, “SONIC HEDGEHOG MODULATORS” (priority 2009, published 2014).

Where two headings read alike, the source gives them in different places.

For data set [1] the following is noted: rcm bond.
A further data set concerns the target T1, ShhN protein (Homo sapiens, UniProt Q15465).
T1 construct: auto-cleavage of full length Shh into an active 20 kD N-terminal fragment (ShhN); purchased R&D Systems
In words: Surface Plasmon Resonance (SPR) protein binding assay on immobilized ShhN. The note with it: SPR, Biacore T100, ShhN immobilized on CM4 chip, 25° C., compound 0.78 μM-25 μM; read-out: KD. The protocol: Biacore™ T100 (GE Healthcare, Uppsala, Sweden) was used to perform the experiments described herein. Sensor surface preparation and interaction analyses experiments were performed at 25° C.
Control surfaces were prepared similarly without protein derivatization and were utilized as a reference surfaces for compound binding experiments.
Zero concentration blank buffer cycles were included as negative control samples.
Data analysis was carried out using Biacore T100 evaluation software v1.1.1. […] Solvent correction was then applied as described previously.

The next data set has as its system C3H10T1/2. The experiment in a line: Induction of osteogenic differentiation (modulation of osteoblast differentiation). The note with it: Mus musculus, C3H 10T1/2, read-out: IC50 (nM) C3H10T1/2.

T1 sequence (Q15465 24-197 limits assumed, species assumed): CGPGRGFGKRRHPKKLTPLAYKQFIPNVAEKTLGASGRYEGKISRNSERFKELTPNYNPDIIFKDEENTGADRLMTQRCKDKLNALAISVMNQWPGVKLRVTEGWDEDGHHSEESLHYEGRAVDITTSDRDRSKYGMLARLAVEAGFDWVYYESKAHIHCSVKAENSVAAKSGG
Source text for C3H10T1/2: Using assays previously described in Dwyer et al., J. Biol. Chem. 282, (2007), 8959-68 and Nakamura et al., Biochm. […] Res. Comm., 237 (1997) 465-9, select compounds of the invention were screened for their ability to modulate osteoblast differentiation.

Turning to `CC(C)(C)OC(=O)N[C@@H]1C/C=C/CCC(=O)N[C@H](c2ccccc2)COC1=O`, the ring closure, yield of all isomers in data set [1] (from C=CCCC(=O)N[C@@H](COC(=O)[C@@H](CC=C)NC(=O)OC(C)(C)C)c1ccccc1, Grubbs II, DCM, 20.0 mM, 25.0 °C, 3.0 h) worked out at 64%. `CC(C)(C)OC(=O)N[C@@H]1C/C=C/CCC(=O)OC[C@@H]2CCCN2C1=O` had a ring closure, yield of all isomers in data set [1] (from C=CCCC(=O)OC[C@@H]1CCCN1C(=O)[C@@H](CC=C)NC(=O)OC(C)(C)C, toluene) of 19%. In the case of `CC(C)(C)[Si](C)(C)O[C@@H]1C/C=C/CCC(=O)N[C@H](c2ccccc2)COC1=O`, the ring closure, yield of all isomers in data set [1] (from C=CCCC(=O)N[C@@H](COC(=O)[C@@H](CC=C)O[Si](C)(C)C(C)(C)C)c1ccccc1, toluene) came to 65%. `CC1=CC[C@@H](C)C(=O)OC[C@@H](c2ccccc2)NC(=O)CC1` returned a ring closure, yield of all isomers in data set [1] (from C=CC[C@@H](C)C(=O)OC[C@H](NC(=O)CCC(=C)C)c1ccccc1, toluene, 3 steps) of 26%. `CN1C/C=C/CCC(=O)N[C@H](c2ccccc2)COC1=O` yielded a ring closure, yield of all isomers in data set [1] (from C=CCCC(=O)N[C@@H](COC(=O)N(C)CC=C)c1ccccc1, DCM) of 45%. The molecule `C[C@@H]1C/C=C/CCC(=O)N[C@@H](C)COC1=O` registered a ring closure, yield of all isomers in data set [1] (from C=CCCC(=O)N[C@@H](C)COC(=O)[C@H](C)CC=C, toluene, 3 steps) of 35%. In turn, `C[C@@H]1C/C=C/CCC(=O)N[C@@H]2c3ccccc3C[C@H]2OC1=O` yielded a ring closure, yield of all isomers in data set [1] (from C=CCCC(=O)N[C@@H]1c2ccccc2C[C@H]1OC(=O)[C@H](C)CC=C, DCM) of 61.8%.

The molecule `C[C@@H]1C/C=C/CCC(=O)N[C@H](c2ccccc2)CN(C)C1=O` came in with a ring closure, yield of all isomers in data set [1] (from C=CCCC(=O)N[C@@H](CN(C)C(=O)[C@H](C)CC=C)c1ccccc1, toluene, 25.0 °C, 16.0 h) of 68%. `C[C@@H]1C/C=C/CCC(=O)N[C@H]2CCC[C@@H]2OC1=O`: the ring closure, yield of all isomers in data set [1] (from C=CCCC(=O)N[C@H]1CCC[C@@H]1OC(=O)[C@H](C)CC=C, toluene) was 25.5%. `C[C@@H]1C/C=C/CCC(=O)N[C@H]2CCC[C@H]2OC1=O` came in with a ring closure, yield of all isomers in data set [1] (from C=CCCC(=O)N[C@H]1CCC[C@H]1OC(=O)[C@H](C)CC=C, toluene) of 32.4%. Molecule `C[C@@H]1C/C=C/CCC(=O)OC[C@H]2CCCN2C1=O` came in with a ring closure, yield of all isomers in data set [1] (from C=CCCC(=O)OC[C@H]1CCCN1C(=O)[C@H](C)CC=C, toluene, 3 steps) of 20%.

As to `C[C@@H]1C/C=C/CCCC(=O)N[C@H](c2ccccc2)COC1=O`, the ring closure, yield of all isomers in data set [1] (from C=CCCCC(=O)N[C@@H](COC(=O)[C@H](C)CC=C)c1ccccc1, toluene) is 67%.

In the case of `C[C@@H]1C/C=C/C[C@@H](NC(=O)OCC2c3ccccc3-c3ccccc32)C(=O)N[C@H](c2ccccc2)COC1=O`, the ring closure, yield of all isomers in data set [1] (from C=CC[C@@H](C)C(=O)OC[C@H](NC(=O)[C@@H](CC=C)NC(=O)OCC1c2ccccc2-c2ccccc21)c1ccccc1, DCM) turned out to be 75%. `C[C@@H]1C/C=C/C[C@H](C)C(=O)N[C@H](c2ccccn2)COC1=O` had a ring closure, yield of all isomers in data set [1] (from C=CC[C@@H](C)C(=O)OC[C@H](NC(=O)[C@@H](C)CC=C)c1ccccn1, toluene) of 89%. For the molecule `C[C@@H]1C/C=C/C[C@H](C)C(=O)N[C@H](c2cccs2)COC1=O`, in data set [1] (from C=CC[C@@H](C)C(=O)OC[C@H](NC(=O)[C@@H](C)CC=C)c1cccs1, toluene), the ring closure, yield of all isomers came out at 74.7%. In turn, `C[C@@H]1CC=CCCC(=O)N[C@@H](c2ccccc2)COC1=O` returned a ring closure, yield of all isomers in data set [1] (from C=CCCC(=O)N[C@H](COC(=O)[C@H](C)CC=C)c1ccccc1, toluene, 25.0 °C, 16.0 h) of 72%. In data set [1] (from C=CC[C@@H](C)C(=O)OC[C@H](NC(=O)[C@@H](CC=C)O[Si](C)(C)C(C)(C)C)c1ccccc1, toluene), `C[C@@H]1CC=CC[C@@H](O[Si](C)(C)C(C)(C)C)C(=O)N[C@H](c2ccccc2)COC1=O` returned a ring closure, yield of all isomers of 58%. `C[C@@H]1COC(=O)C(C)(C)C/C=C/CCC(=O)N1` registered a ring closure, yield of all isomers in data set [1] (from C=CCCC(=O)N[C@H](C)COC(=O)C(C)(C)CC=C, toluene, 3 steps) of 8%. As for `C[C@@H]1COC(=O)[C@H](C)C/C=C/CCC(=O)N1`, the ring closure, yield of all isomers in data set [1] (from C=CCCC(=O)N[C@H](C)COC(=O)[C@H](C)CC=C, toluene, 3 steps) is 38%. Molecule `C[C@@H]1[C@@H](c2ccccc2)OC(=O)CC/C=C/C[C@@H](NC(=O)OC(C)(C)C)C(=O)N1C` displayed a ring closure, yield of all isomers in data set [1] (from C=CCCC(=O)O[C@H](c1ccccc1)[C@@H](C)N(C)C(=O)[C@@H](CC=C)NC(=O)OC(C)(C)C, toluene) of 60%. Take `C[C@H]1C/C=C/CCC(=O)N[C@@H](c2ccccc2)COC1=O`: in data set [1] (from C=CCCC(=O)N[C@H](COC(=O)[C@@H](C)CC=C)c1ccccc1, toluene, 25.0 °C, 16.0 h), the ring closure, yield of all isomers was 74%. `C[C@H]1C/C=C/CCC(=O)OC[C@@H]2CCCN2C1=O` showed a ring closure, yield of all isomers in data set [1] (from C=CCCC(=O)OC[C@@H]1CCCN1C(=O)[C@@H](C)CC=C, toluene, 3 steps) of 25%. The molecule `C[C@H]1[C@@H](c2ccccc2)OC(=O)CC/C=C/C[C@@H](NC(=O)OCC2c3ccccc3-c3ccccc32)C(=O)N1C` displayed a ring closure, yield of all isomers in data set [1] (from C=CCCC(=O)O[C@H](c1ccccc1)[C@H](C)N(C)C(=O)[C@@H](CC=C)NC(=O)OCC1c2ccccc2-c2ccccc21, toluene) of 16%. The molecule `O=C1CCC=CCN(Cc2ccc(Cl)cc2)C(=O)OC[C@@H](c2ccccc2)N1` yielded a ring closure, yield of all isomers in data set [1] (from C=CCCC(=O)N[C@@H](COC(=O)N(CC=C)Cc1ccc(Cl)cc1)c1ccccc1, toluene) of 25%. In turn, `CC1C/C=C/CCC(=O)N[C@H](c2ccccc2)COC1` (stereo partly drawn) [(3R,E)-11-methyl-3-phenyl-1-oxa-4-azacyclododec-8-en-5-one] had a ring closure, yield of all isomers in data set [1] (from C=CCCC(=O)N[C@@H](COCC(C)CC=C)c1ccccc1, toluene, 2 steps) of 0.5%.

In data set [1] (from C=CCCC(=O)O[C@@H](CNC(=O)[C@H](C)CC=C)c1ccccc1, toluene), `C[C@@H]1C/C=C/CCC(=O)O[C@H](c2ccccc2)CNC1=O` [Compound BP, (2R,6R,E)-6-methyl-2-phenyl-1-oxa-4-azacyclododec-8-ene-5,12-dione] yielded a ring closure, yield of all isomers of 79%. The Kd at ShhN protein was greater than 100000 nM. As for `O=C(C[C@@H]1C/C=C/CCC(=O)OC[C@@H]2CCCN2C1=O)NCc1ccc(Cl)cc1` [DP, N-(4-chlorobenzyl)-2-((9S,14aS,E)-3,10-dioxo-3,4,5,8,9,10,12,13,14,14a-decahydro-1H-pyrrolo[2,1-c][1,4]oxaazacyclododecin-9-yl)acetamide], on ShhN protein, the Kd was in the range of 1000 to 100000 nM. Also, the IC50 in the data set on C3H10T1/2 was in the range of 1000 to 100000 nM. Consider `CS(=O)(=O)N[C@@H]1C/C=C/CCC(=O)N[C@H](c2ccccc2)COC1=O` [Example A, N-((3R,11R,E)-5,12-dioxo-3-phenyl-1-oxa-4-azacyclododec-8-en-11yl)-methane sulfonamide], for which, in the data set with C3H10T1/2, the IC50 is less than 100 nM.

In data set [1] (from C=CC[C@@H](C)C(=O)OC[C@H](NC(=O)C(C)(C)CC=C)c1ccccc1, toluene), `C[C@@H]1C/C=C/CC(C)(C)C(=O)N[C@H](c2ccccc2)COC1=O` [Example AY, (3R,11R,E)-6,6,11-trimethyl-3-phenyl-1-oxa-4-azacyclododec-8-ene-5,12-dione] showed a ring closure, yield of all isomers of 81%. Further, the Kd at ShhN protein was in the range of 1000 to 100000 nM. Regarding `CC(=O)N[C@@H]1C/C=C/CCC(=O)N[C@H](c2ccccc2)COC1=O` [Example B, N-((3R,11R,E)-5,12-dioxo-3-phenyl-1-oxa-4-azacyclododec-8-en-11-yl)acetamide], the Kd at ShhN protein is less than 100 nM. The IC50 with C3H10T1/2 was less than 100 nM. `C[C@@H]1C/C=C/CCC(=O)O[C@H](c2ccccc2)[C@H](C)N(C)C1=O` [Example BC, (2R,3S,6R,E)-3,4,6-trimethyl-2-phenyl-1-oxa-4-azacyclododec-8-ene-5,12-dione]: the ring closure, yield of all isomers in data set [1] (from C=CCCC(=O)O[C@H](c1ccccc1)[C@H](C)N(C)C(=O)[C@H](C)CC=C, toluene) stood at 10%. For the same molecule, the Kd at ShhN protein fell in the range of 1000 to 100000 nM.

In data set [1] (from C=CCCC(=O)OC[C@@H]1CCCN1C(=O)[C@H](C)CC=C, toluene), `C[C@@H]1C/C=C/CCC(=O)OC[C@@H]2CCCN2C1=O` [Example BD, (9R,14aS,E)-9-methyl-4,5,8,9,12,13,14,14a-octahydro-1H-pyrrolo[2,1-c][1,4]oxaazacyclododecine-3,10-dione] registered a ring closure, yield of all isomers of 42%. Moreover, the Kd on ShhN protein fell in the range of 1000 to 100000 nM. The molecule `O=C1CC/C=C/C[C@@H](Cc2ccc(Cl)cc2)C(=O)NC[C@@H](c2ccccc2)O1` [Example BQ, (2R,6S,E)-6-(4-chlorobenzyl)-2-phenyl-1-oxa-4-azacyclododec-8-ene-5,12-dione] displayed a ring closure, yield of all isomers in data set [1] (from C=CCCC(=O)O[C@@H](CNC(=O)[C@@H](CC=C)Cc1ccc(Cl)cc1)c1ccccc1, toluene) of 51%. The Kd on ShhN protein is less than 100 nM. `C[C@H]1C/C=C/CCC(=O)N[C@H](c2ccccc2)COC1=O` [Example BS, (3R,11S,E)-11-methyl-3-phenyl-1-oxa-4-azacyclododec-8-ene-5,12-dione] registered a ring closure, yield of all isomers in data set [1] (from C=CCCC(=O)N[C@@H](COC(=O)[C@@H](C)CC=C)c1ccccc1, toluene) of 44%. Further, the Kd at ShhN protein is greater than 100000 nM.

Take `CCOCCNC(=O)C[C@@H]1C/C=C/CCC(=O)O[C@H](c2ccccc2)[C@H](C)N(C)C1=O` [Example DR, 2-((2R,3S,6S,E)-3,4-dimethyl-5,12-dioxo-2-phenyl-1-oxa-4-azacyclododec-8-en-6-yl)-N-(2-ethoxyethyl)acetamide]: the IC50 with C3H10T1/2 was greater than 100000 nM. Same read-out and setting: under `C[C@@H]1CCCCC(F)(F)C(=O)N[C@H](c2ccccc2)COC1=O` [Example L, (3R,11R)-6,6-difluoro-11-methyl-3-phenyl-1-oxa-4-azacyclododecane-5,12-dione] stands greater than 100000 nM.

Consider `O=C1CC/C=C/CCC(=O)OCC(c2ccccc2)N1` (stereo not shown) [F], for which the IC50 in the data set on C3H10T1/2 lay within 100 to 1000 nM. Turning to `O=C1CC/C=C/CCC(=O)OC[C@@H](c2ccccc2)N1` [F], the Kd on ShhN protein was less than 100 nM.
